Tested on: human basophilic leukemia cell line KU812
Assay: Histamine release suppression test using human basophilic leukemia cell line KU812
Format: cell-based
Details: KU812 cells, final concentration 0.01%, CRA-1 15 μg/ml stimulation, N=4
Procedure: Histamine Release Suppression Test Using Human Basophilic Leukemia Cell Line KU812
A human basophilic leukemia cell line KU812 was grown in a RPMI 1640 medium (GIBCO) supplemented with 10% fetal bovine serum (treated at 56° C. for 30 min), at 37° C. in 5% CO2. The medium was washed by addition of a histamine release buffer (IMMUNOTECH) followed by centrifugation (1500 rpm, 5 min, 4° C.) and removal of the supernatant. The washing procedure was carried out twice. Then, a histamine release buffer was added to prepare a cell suspension having a cell density of 10^5 cells/ml. […] After centrifugation (2000 rpm, 10 min, 4° C.), the histamine content of the supernatant was measured using a Histamine EIA Kit (IMMUNOTECH) (N=4). Then, the mean and standard deviation of the measured values were obtained from the calibration curve, and the histamine release suppression rate (%) was calculated according to the following equation: [formula] wherein: • A represents the histamine content (n M) released from cells treated with the test substance/reference substance and CRA-1; • B represents the histamine content (n M) released from untreated cells; and • C represents the histamine content (n M) released from cells treated with CRA-1 only.

CNC[C@H](O)c1ccc(O)c(O)c1 [epinephrine]
histamine release suppression rate: 52±16%

Reference: patent US6863907B2, “Antiallergic composition and antipruritic composition” (Sunstar, Inc., priority 1999, dated 2005)
